Assay results published in patent US9598381B2, “SMYD2 inhibitors” (AbbVie Inc., priority 2014, dated 2017).

Biological target: SMYD2 (Homo sapiens (Human), UniProt Q9NRG4)
Assay: SMYD2 TR-FRET inhibition assay (p53 peptide + SAM, SAH detection)
Format: biochemical
Conditions: SMYD2 enzyme, p53 peptide and SAM substrates, overnight at room temperature; Tb chelate mAb/OG-SAH probe detection; read-out: TRFRET IC50
Procedure: 5 microliters of a 2×SMYD2 enzyme solution (20 nM, […] in assay buffer) were added to each well. To the control wells was also added 5 microliters of assay buffer. […] The wells were incubated at room temperature for 30 minutes.
Into the wells of the counter screen plate was added 5 microliters 2×SAH (300 nM, S-adenosyl homocysteine (SAH)), except the control wells.
Into all wells was added 5 microliters of 2×SAM. The plates were covered and incubated overnight at room temperature. […] Analysis of the wells was by the Laser Lentha Low Volume Envision Protocol (emission wavelength of 520 nm; laser excitation wavelength of 337 nm).

Chain of SMYD2 (Q9NRG4 whole entry): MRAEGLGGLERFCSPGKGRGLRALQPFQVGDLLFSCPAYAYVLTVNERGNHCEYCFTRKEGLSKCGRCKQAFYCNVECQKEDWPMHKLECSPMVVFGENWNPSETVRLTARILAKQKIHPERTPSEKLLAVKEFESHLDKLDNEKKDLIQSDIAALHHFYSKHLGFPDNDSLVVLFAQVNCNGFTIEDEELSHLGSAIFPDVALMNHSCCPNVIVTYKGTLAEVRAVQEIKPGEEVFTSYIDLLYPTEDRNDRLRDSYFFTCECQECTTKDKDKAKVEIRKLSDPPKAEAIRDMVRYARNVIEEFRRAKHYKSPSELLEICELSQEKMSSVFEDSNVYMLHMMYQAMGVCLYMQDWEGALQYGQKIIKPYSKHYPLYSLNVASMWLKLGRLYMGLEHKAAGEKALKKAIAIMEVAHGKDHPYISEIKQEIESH

SMILES	IC50 [µM]
O=C1COc2c(cccc2C(O)CNCCN(C(=O)CCNCCc2ccc(Cl)c(Cl)c2)C2CCCCC2)N1 (racemic) [Example 1, N-cyclohexyl-3-((3,4-dichlorophenethyl)amino)-N-(2-((2-hydroxy-2-(3-oxo-3,4-dihydro-2H-benzo[b][1,4]oxazin-8-yl)ethyl)amino)ethyl)-propanamide]	0.065
O=C1COc2c(cccc2[C@H](O)CNCCN(C(=O)CCNCCc2ccc(Cl)c(Cl)c2)C2CCCCC2)N1 [Example 1a, (S)-N-cyclohexyl-3-((3,4-dichlorophenethyl)amino)-N-(2-((2-hydroxy-2-(3-oxo-3,4-dihydro-2H-benzo[b][1,4]oxazin-8-yl)ethyl)amino)-ethyl)-propanamide]	0.023
O=C1COc2c(cccc2[C@@H](O)CNCCN(C(=O)CCNCCc2ccc(Cl)c(Cl)c2)C2CCCCC2)N1 [Example 1b, (R)-N-cyclohexyl-3-((3,4-dichlorophenethyl)amino)-N-(2-((2-hydroxy-2-(3-oxo-3,4-dihydro-2H-benzo[b][1,4]oxazin-8-yl)ethyl)amino)-ethyl)-propanamide]	0.138
O=C1COc2c(CCNCCN(C(=O)CCNCc3ccc(Cl)c(Cl)c3)C3CCCCC3)ccc(O)c2N1 [Example 2]	2.03
O=C1COc2c(CCNCCN(C(=O)CCNCCc3ccccc3)C3CCCC3)ccc(O)c2N1 [Example 3, N-cyclopentyl-N-(2-((2-(5-hydroxy-3-oxo-3,4-dihydro-2H-benzo[b][1,4]oxazin-8-yl)ethyl)amino)ethyl)-3-(phenethylamino)-propanamide]	3.74
O=C1COc2c(CCNCCN(C(=O)CCNCCc3ccc(Cl)c(Cl)c3)C3CCCC3)ccc(O)c2N1 [Example 4, N-cyclopentyl-3-((3,4-dichlorophenethyl)amino)-N-(2-((2-(5-hydroxy-3-oxo-3,4-dihydro-2H-benzo[b][1,4]oxazin-8-yl)ethyl)amino)-ethyl)-propanamide]	10
O=C(CCNCCc1ccc(Cl)c(Cl)c1)N(CCNCCCN1CCCCC1)C1CCCCC1 [Example 5, N-cyclohexyl-3-((3,4-dichlorophenethyl)amino)-N-(2-((3-(piperidin-1-yl)propyl)amino)ethyl)propanamide]	11.2
O=C(CCNCCc1ccc(Cl)c(Cl)c1)N(CCNCCN1CCCC1)C1CCCCC1 [Example 6, N-cyclohexyl-3-((3,4-dichlorophenethyl)amino)-N-(2-((2-(pyrrolidin-1-yl)ethyl)amino)ethyl)propanamide]	12.1
CC(NCCc1ccc(Cl)c(Cl)c1)C(=O)N(CCNCc1ccc(C#N)cc1)C1CCCCC1 (stereo not drawn) [Example 7, N-(2-((4-cyanobenzyl)amino)ethyl)-N-cyclohexyl-((3,4-dichlorophenethyl)amino)propanamide]	16
CC1CNc2c(CC(C)(C)C)c(NCCN(C(=O)CCNCCc3ccc(Cl)c(Cl)c3)C3CCCCC3)nn2C1 (stereo not drawn) [Example 8, N-cyclohexyl-3-((3,4-dichlorophenethyl)amino)-N-(2-((6-methyl-3-neopentyl-4,5,6,7-tetrahydropyrazolo[1,5-a]pyrimidin-2-yl)-amino)ethyl)-propanamide]	32.8
O=C(CCNCCc1ccccc1)N(CCN1CC[C@H]1COc1cccnc1)C1CCCCC1 [Example 9, (S)-N-cyclohexyl-3-(phenethylamino)-N-(2-(2-((pyridin-3-yloxy)methyl)azetidin-1-yl)ethyl)propanamide]	> 50
COCCC(=O)N(CCNCCc1ccc(O)c2c1OCC(=O)N2)C1CCCCC1 [Example 10, N-cyclohexyl-N-(2-((2-(5-hydroxy-3-oxo-3,4-dihydro-2H-benzo[b][1,4]oxazin-8-yl)ethyl)amino)ethyl)-3-methoxypropanamide]	> 50
O=C1COc2c(CCNCCN(C(=O)CCNCCc3ccccc3)C3CCCCC3)ccc(O)c2N1 [Example 11, N-cyclohexyl-N-(2-((2-(5-hydroxy-3-oxo-3,4-dihydro-2H-benzo[b][1,4]oxazin-8-yl)ethyl)amino)ethyl)-3-(phenethylamino)-propanamide]	> 50
O=C(CCNCCc1ccc(Cl)c(Cl)c1)N(CCN1CCN(c2cccc3c2CCN3)CC1)C1CCCCC1 [Example 12, N-cyclohexyl-3-((3,4-dichlorophenethyl)amino)-N-(2-(4-(indolin-4-yl)piperazin-1-yl)ethyl)propanamide]	9.83
O=C(CCNCCc1ccc(Cl)c(Cl)c1)N(CCNCCCN1CCCC1)C1CCCCC1 [Example 13, N-cyclohexyl-3-((3,4-dichlorophenethyl)amino)-N-(2-((3-(pyrrolidin-1-yl)propyl)amino)ethyl)propanamide]	7.42
O=C1COc2c(CCNCCN(C(=O)CCNCCc3ccccc3)C3CCC3)ccc(O)c2N1 [Example 14, N-cyclobutyl-N-(2-((2-(5-hydroxy-3-oxo-3,4-dihydro-2H-benzo[b][1,4]oxazin-8-yl)ethyl)amino)ethyl)-3-(phenethylamino)-propanamide]	> 50
O=C1COc2c(CCNCCN(C(=O)CCNCCc3ccc(Cl)c(Cl)c3)C3CCC3)ccc(O)c2N1 [Example 15, N-cyclobutyl-3-((3,4-dichlorophenethyl)amino)-N-(2-((2-(5-hydroxy-3-oxo-3,4-dihydro-2H-benzo[b][1,4]oxazin-8-yl)ethyl)amino)-ethyl)-propanamide]	3.79
Cc1cn2ccccc2c1CCNCCN(C(=O)CCNCCc1cccc(Cl)c1Cl)C1CCCCC1 [Example 16, N-cyclohexyl-3-((2,3-dichlorophenethyl)amino)-N-(2-((2-(2-methylindolizin-1-yl)ethyl)amino)ethyl)propanamide]	3.44
